Where two headings read alike, the source gives them in different places.
What was measured:
PHH spheroids = conditions: cited from earlier work
[1] = cited from earlier work
[2] = tested on: isolated mouse liver mitochondria; conditions: In vitro Assay; ref Porceddu 2012; cited from earlier work
hLiMTs [3] = test: Combined HCI (HCS) and cellular ATP 3D assay in hLiMTs; conditions: for AC50 / minimal effective concentration: Homo sapiens; for DILI prediction hLiMTs (HCS-MEC): Microtissue model structural based (HCI), combined HCS and ATP, MEC < 25 × Cmax.tot cut-off; for hLiMTs <25x Avg Cmax ATP / hLiMTs <100x Avg Cmaxu ATP: ATP endpoint; for hLiMTs <25x Avg Cmax ATP / hLiMTs <25x Avg Cmax HCS / hLiMTs <25x Avg Cmax All: cut-off <25x Avg Cmax; for hLiMTs <100x Avg Cmaxu ATP / hLiMTs <100x Avg Cmaxu HCS / hLiMTs <100x Avg Cmaxu All: cut-off <100x Avg Cmaxu; for hLiMTs <25x Avg Cmax HCS / hLiMTs <100x Avg Cmaxu HCS: HCS endpoints; for hLiMTs <25x Avg Cmax All: all endpoints (ATP and HCS); for hLiMTs Cmax max All / hLiMTs Cmax min All / hLiMTs <10 uM All / hLiMTs <100x Avg Cmaxu All: all endpoints; for hLiMTs Cmax max All: Cmax max used; for hLiMTs Cmax min All: Cmax min used; for hLiMTs <10 uM All: cut-off <10 uM
HepaRG spheroids = test: Combined HCI (HCS) and cellular ATP 3D assay in HepaRG spheroids; conditions: for HepaRG <25x Avg Cmax ATP / HepaRG <100x Avg Cmaxu ATP: ATP endpoint; for HepaRG <25x Avg Cmax ATP / HepaRG <25x Avg Cmax HCS / HepaRG <25x Avg Cmax All: cut-off <25x Avg Cmax; for HepaRG <100x Avg Cmaxu ATP / HepaRG <100x Avg Cmaxu HCS / HepaRG <100x Avg Cmaxu All: cut-off <100x Avg Cmaxu; for HepaRG <25x Avg Cmax HCS / HepaRG <100x Avg Cmaxu HCS: HCS endpoints; for HepaRG <25x Avg Cmax All: all endpoints (ATP and HCS); for HepaRG Cmax max All / HepaRG Cmax min All / HepaRG <10 uM All / HepaRG <100x Avg Cmaxu All: all endpoints; for HepaRG Cmax max All: Cmax max used; for HepaRG Cmax min All: Cmax min used; for HepaRG <10 uM All: cut-off <10 uM; for AC50 / minimal effective concentration: Homo sapiens; for HepaRG <25x Avg Cmax ATP / HepaRG <100x Avg Cmaxu ATP / HepaRG <25x Avg Cmax HCS / HepaRG <100x Avg Cmaxu HCS / HepaRG <25x Avg Cmax All / HepaRG Cmax max All / HepaRG Cmax min All / HepaRG <10 uM All / HepaRG <100x Avg Cmaxu All / AC50 / minimal effective concentration: HepaRG; for DILI prediction HepaRG spheroids (HCS-MEC): Microtissue model structural based (HCI), combined HCS and ATP, MEC < 25 × Cmax.tot cut-off
[4] = Plasma free fraction (fu) and unbound Cmax (Cmax,u); format: in vitro ADME, human; conditions: unbound plasma Cmax
Protocol: The prediction of DILI severity was evaluated further using the 3D combined HCI assays using plasma-free fraction. The majority of fu values were obtained from literature, when unavailable in-house prediction was utilised. Unbound plasma Cmax concentrations (Cmax,u) were derived by multiplying total plasma Cmax with the corresponding free fraction (fu) for each compound.

human hepatocytes = conditions: cited from earlier work
[5] = cited from earlier work; remark: listed apart in the source
[6] = tested on: HepG2 C3A spheroid, BSEP, Glu/Gal in HepG2 cells, bioactivation; conditions: cited from earlier work
[7] = tested on: THLE or HepG2 cells, isolated mitochondria, BSEP; conditions: cited from earlier work
hLiMTs [8] = conditions: cited from earlier work
PHH = conditions: cited from earlier work
[9] = plasma free fraction; cited from earlier work
[10] = tested on: HepG2 cells, primary human hepatocytes; conditions: In vitro Assay; ref Garside 2014; cited from earlier work
[11] = ref Chen 2011; cited from earlier work
[12] = Modeled in vitro assays (cytotoxicity, mitochondrial dysfunction, BSEP), ref Aleo et al. 2019
[13] = In vitro Assay, ref Proctor 2017

Structure (SMILES): CCN(CC)CC#CCOC(=O)C(O)(c1ccccc1)C1CCCCC1 (stereo not drawn) [oxybutynin]
- hLiMTs ATP <20 x Cmax (PHH spheroids; In vitro Assay, ref Vorrink 2018): -VE
- DILI in vitro assay prediction, Vorrink (2018) (PHH spheroids): -VE
- Assigned DILI category ([1]; in vivo): 1
- In vivo DILI ([1]; in vivo): -VE
- in vitro data EC2<=1x Cmax [2]: -VE
- AC50 (hLiMTs [3]; read-out: HCS endpoint AC50): 6060 nM
- minimal effective concentration (hLiMTs [3]; read-out: HCS endpoint MEC): 2.11 µM
- DILI prediction hLiMTs (HCS-MEC) (hLiMTs [3]): -VE
- hLiMTs <25x Avg Cmax ATP (hLiMTs [3]): -ve
- hLiMTs <100x Avg Cmaxu ATP (hLiMTs [3]): -ve
- hLiMTs <25x Avg Cmax HCS (hLiMTs [3]): -ve
- hLiMTs <100x Avg Cmaxu HCS (hLiMTs [3]): -ve
- hLiMTs <25x Avg Cmax All (hLiMTs [3]): -ve
- hLiMTs Cmax max All (hLiMTs [3]): -ve
- hLiMTs Cmax min All (hLiMTs [3]): -ve
- hLiMTs <10 uM All (hLiMTs [3]): +ve (<10 uM)
- hLiMTs <100x Avg Cmaxu All (hLiMTs [3]): -ve
- HepaRG <25x Avg Cmax ATP (HepaRG spheroids): -ve
- HepaRG <100x Avg Cmaxu ATP (HepaRG spheroids): -ve
- HepaRG <25x Avg Cmax HCS (HepaRG spheroids): -ve
- HepaRG <100x Avg Cmaxu HCS (HepaRG spheroids): -ve
- HepaRG <25x Avg Cmax All (HepaRG spheroids): -ve
- HepaRG Cmax max All (HepaRG spheroids): -ve
- HepaRG Cmax min All (HepaRG spheroids): -ve
- HepaRG <10 uM All (HepaRG spheroids): -ve
- HepaRG <100x Avg Cmaxu All (HepaRG spheroids): -ve
- AC50 (HepaRG spheroids; read-out: ATP endpoint AC50): 28.5 µM
- minimal effective concentration (HepaRG spheroids; read-out: ATP endpoint MEC): 16.1 µM
- AC50 (HepaRG spheroids; read-out: HCS endpoint AC50): 64.5 µM
- minimal effective concentration (HepaRG spheroids; read-out: HCS endpoint MEC): 10.3 µM
- DILI prediction HepaRG spheroids (HCS-MEC) (HepaRG spheroids): -VE
- Human plasma Cmax,u [4]: 1 nM
- DILI in vitro assay prediction, Xu (2008) (human hepatocytes): -VE
- Structural based (HCI) (human hepatocytes): -VE
- DILI +VE (5-8), DILI -VE (-4) ([5]; in vivo): -VE
- DILI severity category (Chen et al. [2016]) ([5]; in vivo): No
- Bayesian Machine Learning DILI prediction, Williams (2019) [6]: -VE
- Rule of Two hybrid HRM Score ≥8, Aleo (2019) [7]: -VE
- hLiMTs ATP <100uM (hLiMTs [8]): -VE
- hLiMTs/100uM, Proctor (2017) (hLiMTs [8]): -VE
- PHH ATP <100uM (PHH): -VE
- PHH/100uM, Proctor (2017) (PHH): -VE
- fu [9]: 0.030

Structure (SMILES): CCN(CC)CCNC(=O)c1c(C)[nH]c(/C=C2\C(=O)Nc3ccc(F)cc32)c1C [sunitinib]
- Assigned DILI category ([1]; Chen et al. 2016 or literature alignment, ref Chen et al. 2016): 3
- In vivo DILI ([1]; ref Aleo 2019): +VE
- In vivo DILI ([1]; ref Garside 2014): +VE
- In vivo DILI ([1]; ref Porceddu 2012): +VE
- In vivo DILI ([1]; ref Proctor 2017): +VE
- In vivo DILI ([1]; ref Williams 2019): +VE
- in vitro data EC2<=1x Cmax [2]: +VE
- in vitro data EC20<=2uM [2]: -VE
- AC50 (hLiMTs [3]; read-out: ATP endpoint AC50): 400 nM
- minimal effective concentration (hLiMTs [3]; read-out: ATP endpoint MEC): 0.347 µM
- AC50 (hLiMTs [3]; read-out: HCS endpoint AC50): 421 nM
- minimal effective concentration (hLiMTs [3]; read-out: HCS endpoint MEC): 0.157 µM
- DILI prediction hLiMTs (HCS-MEC) (hLiMTs [3]): +VE (MEC < 25 × Cmax.tot cut-off)
- hLiMTs <25x Avg Cmax ATP (hLiMTs [3]): +ve
- hLiMTs <100x Avg Cmaxu ATP (hLiMTs [3]): -ve
- hLiMTs <25x Avg Cmax HCS (hLiMTs [3]): +ve
- hLiMTs <100x Avg Cmaxu HCS (hLiMTs [3]): +ve (<100x Avg Cmaxu)
- hLiMTs <25x Avg Cmax All (hLiMTs [3]): +ve
- hLiMTs Cmax max All (hLiMTs [3]): +ve
- hLiMTs Cmax min All (hLiMTs [3]): +ve
- hLiMTs <10 uM All (hLiMTs [3]): +ve (<10 uM)
- hLiMTs <100x Avg Cmaxu All (hLiMTs [3]): +ve (<100x Avg Cmaxu)
- HepaRG <25x Avg Cmax ATP (HepaRG spheroids): +ve
- HepaRG <100x Avg Cmaxu ATP (HepaRG spheroids): -ve
- HepaRG <25x Avg Cmax HCS (HepaRG spheroids): +ve
- HepaRG <100x Avg Cmaxu HCS (HepaRG spheroids): +ve (<100x Avg Cmaxu)
- HepaRG <25x Avg Cmax All (HepaRG spheroids): +ve
- HepaRG Cmax max All (HepaRG spheroids): +ve
- HepaRG Cmax min All (HepaRG spheroids): +ve
- HepaRG <10 uM All (HepaRG spheroids): +ve (<10 uM)
- HepaRG <100x Avg Cmaxu All (HepaRG spheroids): +ve (<100x Avg Cmaxu)
- AC50 (HepaRG spheroids; read-out: ATP endpoint AC50): 3.11 µM
- minimal effective concentration (HepaRG spheroids; read-out: ATP endpoint MEC): 1.1 µM
- AC50 (HepaRG spheroids; read-out: HCS endpoint AC50): 1.71 µM
- minimal effective concentration (HepaRG spheroids; read-out: HCS endpoint MEC): 0.281 µM
- DILI prediction HepaRG spheroids (HCS-MEC) (HepaRG spheroids): +VE (MEC < 25 × Cmax.tot cut-off)
- Human plasma Cmax,u [4]: 3 nM
- DILI severity category (Chen et al. [2016]) ([5]; LTKB DILIrank category, ref Chen et al. 2016): Most
- DILI severity category (Chen 2016) ([5]; human DILI classification, LTKB DILIrank, ref Chen et al. 2016): Most
- DILI severity category ([5]; human DILI severity, ref Chen et al.): Most
- DILI +VE (5-8), DILI -VE (-4) ([5]; ref Chen 2016): +VE
- DILI severity category ([5]; ref Chen 2016): vMost-DILI-Concern
- Bayesian Machine Learning DILI prediction, Williams (2019) ([6]; Bayesian modeling, ref Williams et al. 2019): +VE
- Bayesian Machine Learning ([6]; In vitro Assay, ref Williams 2019): +VE
- Partition Hybrid HRM Score ([7]; In vitro Assay, ref Aleo 2019): -VE
- Ro2 Hybrid HRM Score ([7]; In vitro Assay, ref Aleo 2019): -VE
- Partition Hybrid HRM Score ≥4, Aleo (2019) [7, 12]: +VE (Partition Hybrid HRM Score ≥4)
- Partition Hybrid HRM Score ≥8, Aleo (2019) [7, 12]: -VE
- Rule of Two hybrid HRM Score ≥3, Aleo (2019) [7, 12]: -VE
- Rule of Two hybrid HRM Score ≥8, Aleo (2019) [7, 12]: -VE
- hLiMTs ATP <100uM (hLiMTs [8]; [13]): +VE (IC50 threshold of 100 µM)
- hLiMTs/100xCmax, Proctor (2017) (hLiMTs [8]; hLiMTs, ATP, IC50 < 100 × Cmax.tot, ref Proctor et al. 2017): +VE (IC50 < 100 × Cmax.tot)
- hLiMTs/100uM, Proctor (2017) (hLiMTs [8]; hLiMTs, ATP, IC50 threshold 100 µM, ref Proctor et al. 2017): +VE (IC50 threshold of 100 µM)
- PHH/100xCmax, Proctor (2017) (PHH; 2D PHH, ATP, IC50 < 100 × Cmax.tot, ref Proctor et al. 2017): +VE (IC50 < 100 × Cmax.tot)
- PHH/100uM, Proctor (2017) (PHH; 2D PHH, ATP, IC50 threshold 100 µM, ref Proctor et al. 2017): +VE (IC50 threshold of 100 µM)
- PHH ATP <100uM (PHH; [13]): +VE (IC50 threshold of 100 µM)
- Cluster 1-6 +VE Assay [10]: +VE
- fu [9]: 0.050
- DILI Score (FDA) (1-8) [11]: 8
